Test results published in patent US20230373985A1 (Origenis Gmbh, priority 2020, published 2023).

Assays:
[1] = target: T1, wt human JAK1, catalytic site (Homo sapiens, UniProt P23458); test: HTRF KinEASE assay, JAK1; assay type: biochemical; settings: 2.5 μM ATP; read-out: IC50, Activity Toward JAK1
T1 construct: wt human JAK1, catalytic site; purchased ThermoFisher
Procedure: Basic protocol for HTRF KinEASE assay (Cisbio/FRA) inhibitor studies involved two steps: • Enzymatic step: Addition of 4 μL of test compound in corresponding DMSO dilutions, 4 μL of kinase/substrate mixture, 2 μL of ATP into 384 well small volume plates. Incubation for at least 30 minutes at room temperature. • Detection step: Addition of 5 μL antibody and 5 μL streptavidin-XL665, read plate after 60 minutes. Data analysis of emission ratios according KinEASE assay protocol.
(§1) Kinase and assay components were adjusted to final concentrations according to kit protocol. For TYK2: 2 nM wt human TYK2, catalytic site (SignalChem/CAN), 1 μM HTRF KinEASE-TK Substrate-biotin, 1 μM ATP in 1× Kinase Buffer. […] For JAK2: 1 nM wt human JAK2, catalytic site (SignalChem/CAN), 1 μM HTRF KinEASE-TK Substrate-biotin, 100 μM ATP in 1× Kinase Buffer.
as §1

[2] = target: T2, wt human TYK2, catalytic site (Homo sapiens, UniProt P29597); test: HTRF KinEASE assay, TYK2; assay type: biochemical; settings: 1 μM ATP; read-out: IC50, Activity Toward TYK2
T2 construct: wt human TYK2, catalytic site; purchased SignalChem
T2 sequence (P29597 897-1176 limits assumed): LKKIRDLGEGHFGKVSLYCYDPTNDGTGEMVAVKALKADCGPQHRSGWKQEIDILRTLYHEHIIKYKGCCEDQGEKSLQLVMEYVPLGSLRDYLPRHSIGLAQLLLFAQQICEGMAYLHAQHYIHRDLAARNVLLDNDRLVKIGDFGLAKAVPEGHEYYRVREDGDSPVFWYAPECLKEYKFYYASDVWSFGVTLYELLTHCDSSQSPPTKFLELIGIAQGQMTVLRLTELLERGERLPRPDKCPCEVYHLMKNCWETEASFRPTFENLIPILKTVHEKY
Procedure, shortened: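 HTRF KinEASE-TK readout with 1 μM biotinylated TK substrate in 1× kinase buffer, ≥30 min at room temperature, then antibody/streptavidin-XL665 detection for 60 min. TYK2 at 2 nM with 1 μM ATP; JAK2 at 1 nM with 100 μM ATP. Analysis uses emission ratios.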

T1 sequence (P23458 875-1153 limits assumed): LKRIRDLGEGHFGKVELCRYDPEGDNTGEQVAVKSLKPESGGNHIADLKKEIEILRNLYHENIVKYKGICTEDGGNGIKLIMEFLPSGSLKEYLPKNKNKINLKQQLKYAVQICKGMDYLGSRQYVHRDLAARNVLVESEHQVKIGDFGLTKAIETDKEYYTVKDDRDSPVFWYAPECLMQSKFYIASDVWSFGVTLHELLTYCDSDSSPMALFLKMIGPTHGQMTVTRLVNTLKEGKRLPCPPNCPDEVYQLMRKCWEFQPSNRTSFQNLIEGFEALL

| Compound | IC50 [1] [µM] | IC50 [2] [µM] |
| --- | --- | --- |
| CN(C)[C@@H]1CCN(C(=O)c2ccc(Nc3nn(-c4c(Cl)cccc4Cl)nc3C(N)=O)nc2)C1 [compound 133, (R)-2-(2,6-dichlorophenyl)-5-((5-(3-(dimethylamino)pyrrolidine-1-carbonyl)pyridin-2-yl)amino)-2H-1,2,3-triazole-4-carboxamide] | 0.01 to 0.1 | 0.1 to 1 |
| Cc1nnnn1-c1ccc(Nc2nn(-c3c(Cl)cccc3Cl)nc2C(N)=O)nc1 [compound 134, 2-(2,6-dichlorophenyl)-5-((5-(5-methyl-1H-tetrazol-1-yl)pyridin-2-yl)amino)-2H-1,2,3-triazole-4-carboxamide] | 0.01 to 0.1 | 0.01 to 0.1 |
| Cc1cccc2nnc(-c3ccc(Nc4nn(-c5c(Cl)cccc5Cl)nc4C(N)=O)cn3)n12 [compound 139, 2-(2,6-dichlorophenyl)-5-((6-(5-methyl-[1,2,4]triazolo[4,3-a]pyridin-3-yl)pyridin-3-yl)amino)-2H-1,2,3-triazole-4-carboxamide] | 0.01 to 0.1 | 0.1 to 1 |
| Cc1cnnn1-c1ccc(Nc2nn(-c3c(Cl)cccc3Cl)nc2C(N)=O)nc1 [compound 141, 2-(2,6-dichlorophenyl)-5-((5-(5-methyl-1H-1,2,3-triazol-1-yl)pyridin-2-yl)amino)-2H-1,2,3-triazole-4-carboxamide] | 0.01 to 0.1 | 0.01 to 0.1 |
| CCn1ncnc1-c1ccc(Nc2nn(-c3c(Cl)cccc3Cl)nc2C(N)=O)nc1 [compound 142, 2-(2,6-dichlorophenyl)-5-((5-(1-ethyl-1H-1,2,4-triazol-5-yl)pyridin-2-yl)amino)-2H-1,2,3-triazole-4-carboxamide] | 0.01 to 0.1 | 0.1 to 1 |
| NC(=O)c1nn(-c2c(Cl)cccc2Cl)nc1Nc1ccc(N2CCOCC2)cn1 [compound 143, 2-(2,6-dichlorophenyl)-5-((5-morpholinopyridin-2-yl)amino)-2H-1,2,3-triazole-4-carboxamide] | 0.1 to 1 | 0.1 to 1 |
| Cn1cc(C(F)(F)F)nc1-c1ccc(Nc2nn(-c3c(Cl)cccc3Cl)nc2C(N)=O)nc1 [compound 144, 2-(2,6-dichlorophenyl)-5-((5-(1-methyl-4-(trifluoromethyl)-1H-imidazol-2-yl)pyridin-2-yl)amino)-2H-1,2,3-triazole-4-carboxamide] | 0.01 to 0.1 | 0.01 to 0.1 |
| CN(C)C1CCN(C(=O)c2ccc(Nc3nn(-c4c(Cl)cccc4Cl)nc3C(N)=O)nc2)CC1 [compound 149, 2-(2,6-dichlorophenyl)-5-((5-(4-(dimethylamino)piperidine-1-carbonyl)pyridin-2-yl)amino)-2H-1,2,3-triazole-4-carboxamide] | < 0.01 | 0.01 to 0.1 |
| CN1CCCN(C(=O)c2ccc(Nc3nn(-c4c(Cl)cccc4Cl)nc3C(N)=O)nc2)CC1 [compound 150, 2-(2,6-dichlorophenyl)-5-((5-(4-methyl-1,4-diazepane-1-carbonyl)pyridin-2-yl)amino)-2H-1,2,3-triazole-4-carboxamide] | 0.01 to 0.1 | 0.01 to 0.1 |

The next lines start with the values.

| IC50 [1] [µM] | IC50 [2] [µM] | Compound |
| --- | --- | --- |
| < 0.01 | 0.01 to 0.1 | COCCNC(=O)c1ccc(Nc2nn(-c3c(Cl)cccc3Cl)nc2C(N)=O)cc1 [compound 123, 2-(2,6-dichlorophenyl)-5-((4-((2-methoxyethyl)carbamoyl)phenyl)amino)-2H-1,2,3-triazole-4-carboxamide] |
| 0.01 to 0.1 | 0.01 to 0.1 | CC(C)n1cnnc1-c1ccc(Nc2nn(-c3c(Cl)cccc3Cl)nc2C(N)=O)cc1 [compound 125, 2-(2,6-dichlorophenyl)-5-((4-(4-isopropyl-4H-1,2,4-triazol-3-yl)phenyl)amino)-2H-1,2,3-triazole-4-carboxamide] |
| < 0.01 | 0.01 to 0.1 | CCc1cnnn1-c1ccc(Nc2nn(-c3c(Cl)cccc3Cl)nc2C(N)=O)cc1 [compound 126, 2-(2,6-dichlorophenyl)-5-((4-(5-ethyl-1H-1,2,3-triazol-1-yl)phenyl)amino)-2H-1,2,3-triazole-4-carboxamide] |
| 0.1 to 1 | 0.1 to 1 | CN1CCN(C(=O)c2ccc(Nc3nn(-c4c(Cl)cccc4Cl)nc3C(N)=O)nc2)CC1 [compound 127, 2-(2,6-dichlorophenyl)-5-((5-(4-methylpiperazine-1-carbonyl)pyridin-2-yl)amino)-2H-1,2,3-triazole-4-carboxamide] |
| < 0.01 | < 0.01 | NC(=O)c1nn(-c2c(Cl)cccc2Cl)nc1Nc1ccc(C(=O)NCCF)cc1 [compound 128, 2-(2,6-dichlorophenyl)-5-((4-((2-fluoroethyl)carbamoyl)phenyl)amino)-2H-1,2,3-triazole-4-carboxamide] |
| 0.1 to 1 | 0.1 to 1 | NC(=O)c1nn(-c2c(Cl)cccc2Cl)nc1Nc1ccc(C(=O)N2CC(F)(F)C(F)(F)C2)cn1 [compound 132, 2-(2,6-dichlorophenyl)-5-((5-(3,3,4,4-tetrafluoropyrrolidine-1-carbonyl)pyridin-2-yl)amino)-2H-1,2,3-triazole-4-carboxamide] |
| 0.01 to 0.1 | 0.01 to 0.1 | NC(=O)c1nn(-c2c(Cl)cccc2Cl)nc1Nc1ccc(C(=O)N2CC(F)C2)cn1 [compound 135, 2-(2,6-dichlorophenyl)-5-((5-(3-fluoroazetidine-1-carbonyl)pyridin-2-yl)amino)-2H-1,2,3-triazole-4-carboxamide] |
| 0.01 to 0.1 | 0.01 to 0.1 | NC(=O)c1nn(-c2c(Cl)cccc2Cl)nc1Nc1ccc(C(=O)N2CCCC2)cn1 [compound 137, 2-(2,6-dichlorophenyl)-5-((5-(pyrrolidine-1-carbonyl)pyridin-2-yl)amino)-2H-1,2,3-triazole-4-carboxamide] |
| 0.1 to 1 | 0.01 to 0.1 | NC(=O)c1nn(-c2c(Cl)cccc2Cl)nc1Nc1ccc(C(=O)N2CCOCC2)cn1 [compound 140, 2-(2,6-dichlorophenyl)-5-((5-(morpholine-4-carbonyl)pyridin-2-yl)amino)-2H-1,2,3-triazole-4-carboxamide] |
| < 0.01 | 0.01 to 0.1 | NC(=O)c1nn(-c2c(Cl)cc(F)cc2Cl)nc1Nc1ccc(C(=O)N2CC[C@@H](F)C2)cc1 [compound 146, (R)-2-(2,6-dichloro-4-fluorophenyl)-5-((4-(3-fluoropyrrolidine-1-carbonyl)phenyl)amino)-2H-1,2,3-triazole-4-carboxamide] |
| 0.01 to 0.1 | 0.1 to 1 | NC(=O)c1nn(-c2c(Cl)cccc2Cl)nc1Nc1ccc(CC(=O)N2CCOCC2)nc1 [compound 151, 2-(2,6-dichlorophenyl)-5-((6-(2-morpholino-2-oxoethyl)pyridin-3-yl)amino)-2H-1,2,3-triazole-4-carboxamide] |
| 0.01 to 0.1 | 0.1 to 1 | NC(=O)c1nn(-c2c(Cl)cccc2Cl)nc1Nc1ccc(CC(=O)N2CC(F)C2)nc1 [compound 152, 2-(2,6-dichlorophenyl)-5-((6-(2-(3-fluoroazetidin-1-yl)-2-oxoethyl)pyridin-3-yl)amino)-2H-1,2,3-triazole-4-carboxamide] |
| 0.01 to 0.1 | 0.01 to 0.1 | N#CC1CN(C(=O)c2ccc(Nc3nn(-c4c(Cl)cccc4Cl)nc3C(N)=O)nc2)C1 [compound 153, 5-((5-(3-cyanoazetidine-1-carbonyl)pyridin-2-yl)amino)-2-(2,6-dichlorophenyl)-2H-1,2,3-triazole-4-carboxamide] |
